# According to US11931352B2, “Combination therapies for treating cancer” (UNIVERSITY OF VIRGINIA PATENT FOUNDATION, priority 2018, dated 2024):
# Columns and labels:
# [1] = relative to the methoxy compound; cited from earlier work
# [2] = system: wild type lineage negative mouse bone marrow cells; assay: MYC expression in normal mouse bone marrow cells; assay type: cell-based; settings: 5 μM AI-10-49, 24 hrs
# Method: (§1) Murine bone marrow cells were isolated by crushing femur and tibia of the hind legs of mice. Wild type mouse bone marrow cells were cultured in StemSpan Serum-Free Expansion Medium (SFEM, Stemcell Technologies), 100 U/ml Penicillin and […] Streptomycin (Life Technologies) supplemented with 6 ng/ml murine recombinant IL3, 10 ng/ml murine recombinant IL6, and 50 ng/ml murine recombinant SCF. Cbfb^+/MYH11 and Nras^+/G120 leukemic bone marrow and spleen cells were cultured in StemSpan Serum-Free Expansion Medium (SFEM, Stemcell Technologies), 100 U/ml Penicillin and […] Streptomycin (Life Technologies) supplemented with 10 ng/ml murine recombinant IL3, and 50 ng/ml murine recombinant SCF.
# (§2) Quantitative RT-PCR Analysis. mRNA was prepared with a PureLink® RNA Mini Kit (Life Technologies) and cDNA synthesis was performed with a SuperScript III kit (Life Technologies), per the manufacturers' instructions. Quantitative PCR analysis was conducted on an Applied Biosystems StepOnePlus System with Power SYBR® Green PCR Master Mix (Applied Biosystems). Expression levels were determined with the ΔCt method and normalized to ([…] and/or GAPDH. Sequences of primers are provided in the Key Resource Table.
# MYC [3] = assay: MYC protein levels by immunoblot in ME-1 cells; assay type: cell-based, human; settings: 0.1 μM and greater concentrations, 6 hrs
# Method: Immunoblotting. ME-1 cells were lysed in modified RIPA buffer (50 mM Tris pH7.5, 150 mM NaCl, 1% NP40, 0.25% sodium deoxycholate and 1 mM EDTA) with phosphatase inhibitor (Sigma) and protease inhibitors (Millipore) for 15 min in ice followed by centrifugation. Nuclear and cytoplasmic fractions were isolated using Subcellular Protein Fractionation Kit (Thermo Fisher Scientific) according to the manufacturer's instructions. Protein concentrations were determined with the Biorad Protein Assay (Biorad). Proteins were separated on precast 8-12% Mini Protean TGX gels at 60-80 V using the Mini Protean electrophoresis system and were blotted onto PVDF membrane at 100V for 90 min in a Mini Trans-Blot Cell. All antibodies were used as recommended by the manufacturer and mentioned in Key Resource Table. Relative band intensities were quantified using ImageJ software.
# CBFβ = biological target: T1, CBFβ (Homo sapiens, UniProt Q13951); settings: cited from earlier work
# T1 sequence (Q13951 1-182): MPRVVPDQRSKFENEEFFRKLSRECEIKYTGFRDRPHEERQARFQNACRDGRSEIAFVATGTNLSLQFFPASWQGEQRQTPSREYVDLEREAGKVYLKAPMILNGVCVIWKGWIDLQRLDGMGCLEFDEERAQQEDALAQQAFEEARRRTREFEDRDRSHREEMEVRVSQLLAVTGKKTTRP
# [4] = system: non-inv(16) AML cells (U937, K562, Jurkat, Kasumi-1 and THP-1); assay: MYC transcript levels in non-inv(16) AML cell lines; assay type: cell-based; settings: 1 μM AI-10-49, 6 hrs
# Method: as §2
# ME-1 cells [5] = assay: Cell viability (MTT) dose response and synergy analysis in ME-1 cells; assay type: cell-based, human; settings: ME-1 cells treated 72 hr, MTT assay
# Method: Cell Viability Assay. Cell viability was estimated using the MTT kit, CellTiter 96® AQueous One Solution (Promega, PA). 20,000 cells/well were seeded in triplicate into 96-well plates. After 24-72 hrs, 20 μl of MTT reagent was added to wells containing cells or medium (blank), and absorption at 490 nm was measured using SpectraMax M5 plate reader (Molecular Devices).
# The IC50 was estimated using the drc package in R with lower bound set to 0 (Ritz et al., 2015). CIs were calculated using the formula a/A+b/B. Synergisms, additive effect and antagonism of combine treatment assays are defined as CI<1, CI=1 and CI>1 respectively, utilizing the Chou-Talalay Method (Chou, 2010).
# [6] = system: human cord blood CD34+ cells; assay: MYC expression in normal human CD34+ hematopoietic cells; assay type: cell-based; settings: 5 μM AI-10-49, 24 hrs
# Source text: (§3) Primary Hematopoietic Cell Cultures. Human cord blood samples were collected from the UMASS Memorial Medical Center, and CD34^+ cells were isolated using the CD34 Microbead kit (Miltenyi Biotec). The use of the cord blood samples for research purposes was approved by the Ethics Committee of the University of Massachusetts Medical School. Human AML samples were received from Martin Peter Carroll (University of Pennsylvania) and Carsten Mueller-Tidow (University of Heidelberg, Germany). Hematopoietic CD34^+ cells were isolated from human AML bone marrow samples using the CD34 Microbead kit (Miltenyi Biotec). All patients gave written consent for use of their samples. […]
# as §2
# RUNX1 [7] = assay: ChIP-seq for RUNX1 in ME-1 cells; assay type: cell-based, human; settings: AI-10-49 1 μM, 6 hrs
# Method: (§4) Chromatin Immunoprecipitation (ChIP). ME-1 cells were treated with DMSO or AI-10-49 (1 μM) for six hrs. Cross-linking of proteins to DNA was accomplished by the addition of 1% formaldehyde for 10 min to cultured cells at room temperature. After neutralization with glycine, cells were lysed in lysis buffer with protease inhibitors and samples were sonicated to an average DNA length of 200-400 bp with a bioruptor (Diagenode). After sonication, the chromatin was immunoprecipitated with 10 μg of antibody of interest at 4° C. overnight. Antibody bound complexes were isolated with Dynabeads (Life Technologies). DNA was purified using phenol-chloroform isoamyl-alcohol method. Immunoprecipitated DNA was analyzed by sequencing (explained below) or qPCR on a StepOnePlus System (Applied Biosystems) with Power SYBR® Green PCR Master Mix and calculated as % of input.
# (§5) Chromatin immunoprecipitation followed by sequencing (ChIP-seq). DNA concentration was quantified with a NanoDrop spectrophotometer (Thermo Scientific). DNA integrity was evaluated with a 2100 Bioanalyzer (Agilent Technologies). […] Libraries were quantified by qPCR, normalized and pooled before sequencing with single-end 50-bp reads on an Illumina HiSeq4000).
# (§6) ChIP-seq data analysis. ChIP-seq reads were aligned to the human genome (hg19) with Bowtie2 v 2.1.0 (Langmead and Salzberg, 2012) with the standard default settings. […]
# ME-1 cells [8] = assay: RNA-sequencing expression analysis of AI-10-49 treated ME-1 cells; assay type: cell-based, human; settings: AI-10-49 1 μM, 6 hrs
# Method: RNA Sequencing. The RNA for RNA-sequencing was prepared with a PureLink® RNA Mini Kit. RNA concentration was quantified with a NanoDrop spectrophotometer (Thermo Scientific). RNA integrity was evaluated with a 2100 Bioanalyzer with an RNA 6000 kit (Agilent Technologies). Libraries were prepared with a TruSeq RNA library preparation kit (Illumina). Libraries were quantified by qPCR, normalized and pooled before sequencing with paired-end 90-bp reads on an Illumina HiSeq2000 in triplicate.
# RNA-seq data analysis. Raw reads from RNA-seq experiment were assessed for their quality using fastqc, followed by alignment to the reference human genome (hg19) using tophat v 2.0.9, bowtie2/2.1.0 (Trapnell et al., 2009) with the default setting except the following parameters: -b2-very-sensitive-mate-inner-dist 160-mate-std-dev 80-no-coverage-search-transcriptome-index=hg19_knownGene_transcriptome_data. Differential gene expression analysis was performed by cufflinks v 2.2.0 (Trapnell et al., 2012).
# [9] = system: CBFβ-SMMHC-expressing (Nras/CM) leukemia cells; assay: Leukemia transplantation study in mice (leukemia latency); assay type: in vivo, mouse; settings: i.p. from day 5; AI-10-49 200 mg/kg/day for 10 days, JQ1 50 mg/kg/day for 21 days
# Method: Leukemia transplantation studies in mice. […] AI-10-49 was administered at 200 mg/kg/day from day 5 to day 14. […] Mice were sacrificed after visible characteristics of AML, including reduced motility and grooming activity, hunched back, and pale paws (anemia). Leukemic cells were extracted from spleen and analyzed at time of euthanasia as previously described (Kuo et al., 2006).
# Statistical Analysis. Analysis was performed using R, a system for statistical computation and graphics (Ihaka and Gentleman, 1996). For mouse leukemia survival analysis, the leukemia latency and P-values were estimated using Survival package in R. P-value between groups was calculated using log-rank test. Relative cell viability, measured as the proportion of viable cells, was first arcsine-transformed to homogenize the variance. […] One-way ANOVA was performed followed by predetermined contrasts for FIGS. 2A, 2B, 2C, 2D, 2E, 4D and 7C. Two-way ANOVA was performed followed by Tukey's honest significance test for FIG. 3C. To compare the response curves (FIGS. 3A & 3D), an indicator variable was created to distinguish the two-drug treatment and one of the single-drug treatments. Two-way ANOVA was performed to compare a single-drug treatment and the two-drug treatment.
# [10] = system: human primary inv(16) leukemic CD34+ cells; assay: MYC expression in human primary inv(16) AML cells; assay type: cell-based; settings: 5 μM AI-10-49, 24 hrs
# Source text: as §3, §2
# RING1B = assay: Time-course ChIP-qPCR for RING1B at E3 in ME-1 cells; assay type: cell-based, human; settings: by 5 hr of AI-10-49 treatment
# Method: as §4, with “ME-1 cells were treated with DMSO or AI-10-49 (1 μM) for six hrs.” left out
# H3K27ac = assay: ChIP-seq for H3K27ac in ME-1 cells; assay type: cell-based, human; settings: AI-10-49 1 μM, 6 hrs; DMSO 31,102
# Method: as §4, §5, §6
# [11] = system: lineage negative mouse Cbfb+/MYH11 leukemic cells; assay: MYC expression in mouse Cbfb+/MYH11 leukemic cells; assay type: cell-based; settings: 5 μM AI-10-49, 24 hrs
# Method: as §1, §2
# RUNX1 [12] = assay: ChIP-qPCR for RUNX1 at MYC enhancers in ME-1 cells; assay type: cell-based, human
# Method: as §4, with “ME-1 cells were treated with DMSO or AI-10-49 (1 μM) for six hrs.” left out
# MYC [13] = assay: MYC transcript levels by qRT-PCR in ME-1 cells; assay type: cell-based, human; settings: for MYC transcript and protein levels: single agent treatment of ME-1 cells
# Method: as §2
# [14] = AI-10-49 versus DMSO, ME-1 cells
smiles,measurement,setting,value
"FC(F)(F)Oc1ccc2[nH]c(-c3ccccn3)nc2c1 [A-10-47, 2-(pyridin-2-yl)-5-(trifluoromethoxy)-1H-benzo[d]imidazole]",metabolic stability,[1],enhanced metabolic stability
FC(F)(F)Oc1ccc2[nH]c(-c3ccc(OCCOCCOc4ccc(-c5nc6cc(OC(F)(F)F)ccc6[nH]5)nc4)cn3)nc2c1 [AI-10-49],MYC expression,[2],not affected
same,MYC protein levels depleted,MYC [3],approximately 20 fold
same,effect on CBFβ function,CBFβ,minimal effect
same,repression of MYC transcript levels,[4],not in non-inv(16) AML cell lines
same,LD50 range at 95% confidence intervals,ME-1 cells [5],0.398 to 0.537 mM
same,MYC expression,[6],not affected
same,increase in RUNX1 binding to target regulatory elements,RUNX1 [7]; versus DMSO,7 fold
same,RUNX1 binding sites,RUNX1 [7]; DMSO 991,"6,652 sites"
same,E2F1 levels repressed (RNA-seq),ME-1 cells [8],3 fold
same,MYC levels repressed (RNA-seq),ME-1 cells [8],over 10 fold
same,median latency of leukemia,[9],39 days
same,MYC expression,[10],reduced
same,RING1B occupancy at E3,RING1B,90%
same,H3K27ac positive peaks,H3K27ac,"24,157 peaks"
same,MYC expression,[11],reduced
same,RUNX1 peak increase at BDME-E3,RUNX1 [12]; [14],8 fold
same,RUNX1 peak increase at E5,RUNX1 [12]; [14],1.8 fold
same,RUNX1 peak increase at ME1,RUNX1 [12]; [14],5 fold
same,RUNX1 peak increase at ME2,RUNX1 [12]; [14],3 fold
same,RUNX1 occupancy at E3,"RUNX1 [12]; time course, by 5 hr of AI-10-49 treatment",90%
same,repression of MYC transcript levels,"MYC [13]; 1 uM AI-10-49, 6 hrs, ME-1 cells",10 fold
same,MYC transcript and protein levels,MYC [13],readily reduced
"Cc1sc2c(c1C)C(c1ccc(Cl)cc1)=N[C@@H](CC(=O)OC(C)(C)C)c1nnc(C)n1-2 [JQ1, reference compound]",median latency of leukemia,[9],32 days
same,MYC transcript and protein levels,MYC [13],readily reduced
